Measurements reported in paper PMC4741274 (Neurochemical research, 2015).
Where “and” joins values, the source holds several entries; their conditions need not be identical. Identical values can stand only once. Entries after “also recorded” stand apart in the source; their conditions may differ. Like-named read-outs stand apart in the source and are kept apart here.

Columns and labels:
nAChRs = nAChRs (Rattus norvegicus, UniProt P09483+P12390); format: binding; conditions: read-out: Ki AVG
α2β2 nAChR = α2β2 nAChR (Rattus norvegicus, UniProt P12389+P12390); assay: Competition binding vs 500 pM [3H]EB, stably transfected HEK cells
α2β4 nAChR [1] = target: T1, α2β4 nAChR (Rattus norvegicus, UniProt P12389+P12392); assay: as above
α3β2 nAChR = α3β2 nAChR (Rattus norvegicus, UniProt P04757+P12390); assay: as above
α3β4 nAChR [2] = target: T2, α3β4 nAChR (Rattus norvegicus, UniProt P04757+P12392); assay: as above; conditions: for Selectivity ratio α3β4/α7: ratio of Ki in stably transfected cells
α4β2 nAChR [3] = target: T3, α4β2 nAChR (Rattus norvegicus, UniProt P09483+P12390); format: binding; conditions: for Ki: read-out: Ki α4β2, vs 500pM [3H]EB, HEK cells, Mean ± SEM of three
[4] = test system: α4β2* nAChRs from rat forebrain tissue (FB); assay: biochemical; format: binding; conditions: Ki α3β4 transfected cells vs rat forebrain (FB) α4β2
α4β4 nAChR = α4β4 nAChR (Rattus norvegicus, UniProt P09483+P12392); assay: Competition binding vs 500 pM [3H]EB, stably transfected HEK cells
α7 nAChR [5] = target: T4, α7 nAChR (Rattus norvegicus, UniProt Q05941); assay: as above
rat α3β4 nAChRs = rat α3β4 nAChRs (Rattus norvegicus, UniProt P04757+P12392); assay: cell-based; format: cell-based; conditions: for Agonist activity (in words): α3β4 nAChRs, 86Rb+ efflux
[6] = test system: Human α4β2 nAChRs expressed in K177 cells; conditions: 86Rb+ efflux, ref [22]; cited from earlier work
[7] = test system: IMR-32 cells (ganglionic-like α3β4 nAChRs); conditions: 86Rb+ efflux, ref [22]; cited from earlier work
α2β4 nAChR [8] = target: T1, α2β4 nAChR; conditions: read-out: Ki α2β4; added for comparison; ref [24]; cited from earlier work
α3β4 nAChR [9] = target: T2, α3β4 nAChR; conditions: cited from earlier work
α4β2 nAChR [10] = target: T3, α4β2 nAChR; conditions: added only for comparison; ref [24]; cited from earlier work
[11] = test system: α4β2* nAChRs from rat forebrain tissue (FB); conditions: cited from earlier work
α7 nAChR [12] = target: T4, α7 nAChR; conditions: read-out: Ki α7; added for comparison; ref [24]; cited from earlier work
[13] = target: α4β2* nAChRs from rat forebrain tissue (FB) (Rattus norvegicus, UniProt P09483+P12390); assay: biochemical; format: binding
[14] = read-out: Ki α2β2, vs 500pM [3H]EB, HEK cells, Mean ± SEM of three
[15] = read-out: Ki α2β4, vs 500pM [3H]EB, HEK cells, Mean ± SEM of three
[16] = read-out: Ki α3β2, vs 500pM [3H]EB, HEK cells, Mean ± SEM of three
[17] = read-out: Ki α3β4, vs 500pM [3H]EB, HEK cells, Mean ± SEM of three
[18] = ratio of Ki in stably transfected cells
[19] = read-out: Ki α4β4, vs 500pM [3H]EB, HEK cells, Mean ± SEM of three
[20] = read-out: Ki α7, vs 500pM [3H]EB, HEK cells, Mean ± SEM of three

Row | Compound | Ki (nAChRs) [µM] | Ki (α2β2 nAChR; [14]) [µM] | Ki (α2β4 nAChR [1]; [15]) [µM] | Ki (α3β2 nAChR; [16]) [µM] | Selectivity ratio α3β4/α7 (α3β4 nAChR [2]) | Ki (α3β4 nAChR [2]; [17]) [µM] | Selectivity ratio α3β4/α4β2 (α4β2 nAChR [3]; [18]) | Ki (α4β2 nAChR [3]) [µM] | Selectivity ratio α3β4/α4β2*FB [4] | Ki (α4β4 nAChR; [19]) [µM] | Ki (α7 nAChR [5]; [20]) [µM] | EC50 (rat α3β4 nAChRs) [µM] | Agonist activity (in words) (rat α3β4 nAChRs) | Agonist/antagonist function (in words) [6] | EC50 [6] [µM] | Agonist/antagonist function (in words) [7] | also measured
1 | c1cncc(OC[C@@H]2CCCN2)c1 [H-11MNH] | 0.00046 | 0.00035 ± 9e-05 | 0.076 ± 0.012 | 0.0013 ± 0.0003 | 3.23 | 0.21 ± 0.04 | 538.5 | 0.00039 ± 5e-05 | 295.8 | 0.031 ± 0.006 | 0.065 ± 0.005 | 24 ± 1 | full agonist with high potency; also recorded: full agonist with high efficacy | full agonists | 4 | full agonists | Selectivity ratio α3β4/α4β2*FB ([4]; listed as H-11NMH): ~ 300; Relative Emax (rat α3β4 nAChRs): 83.33% and 83.3 ± 3%
2 | c1cc(OC[C@@H]2CCCN2)ccn1 [H-11PNH] | 59.2 | > 10 | > 10 | > 10 |  | > 10 |  | > 10 |  | > 10 | > 10 |  |  |  |  |  | 
3 | c1cncc(OC[C@@H]2CCN2)c1 [A-85380, 3-(2(S)-azetidinylmethoxy) pyridine] |  |  |  |  |  |  |  |  |  |  |  |  |  |  |  |  | Ki (α2β4 nAChR [8]): 0.018 ± 0.004 µM; Selectivity ratio α3β4/α7 (α3β4 nAChR [9]): 0.18; Selectivity ratio α3β4/α4β2 (α4β2 nAChR [10]): 557.14; Selectivity ratio α7/α4β2 (α4β2 nAChR [10]): 3,000; Selectivity ratio α3β4/α4β2*FB [11]: 312; Ki (α7 nAChR [12]): 0.42 ± 0.05 µM
4 | CN1CCC[C@H]1COc1cccnc1 [A-84543, 3-(1-methyl-2(S)-pyrrolidinylmethoxy)pyridine, reference compound] |  |  |  |  | 5.58 |  | 1,357 |  | 351.9 |  |  | 160 ± 40 | partial agonist with low potency | full agonists | 0.75 | full agonists | Ki (α2β2 nAChR): 0.002 ± 0.0003 µM; Ki (α2β4 nAChR [1]): 0.37 ± 0.04 µM; Ki (α3β2 nAChR): 0.012 ± 0.001 µM; Ki (α3β4 nAChR [2]): 1.9 µM; Selectivity ratio α7/α4β2 (α4β2 nAChR [3]; [18]): 242; Ki [13]: 0.0054 ± 0.0006 µM; Ki (α4β4 nAChR): 0.15 ± 0.01 µM; Ki (α7 nAChR [5]): 0.34 ± 0.05 µM; Emax (rat α3β4 nAChRs; HEK293, read-out: Relative Emax): 37.5 ± 6%
5 | c1ccc(OCC2CCCN2)nc1 (centres unmarked) [H-11ONH] | 21.8 | > 10 | > 10 | > 10 |  | > 10 |  | > 10 |  | > 10 | > 10 |  |  |  |  |  | 
6 | CN1CCCC1COc1ccccn1 (centres unmarked) [H-11ONM] | 60.3 | > 10 | > 10 | > 10 |  | > 10 |  | > 10 |  | > 10 | > 10 |  |  |  |  |  | 
